Source: PMC11641860 (International Journal of Molecular Sciences, 2024)
pIC50: −log10 of the molar value.

Columns and labels:
[1] = tested on: GRP78; experiment: Western blot of GRP78 in MRC5 cells; assay type: cell-based, human; conditions: MRC5, 24 h
Procedure: (§1) Western blot analyses were performed to detect protein levels and the expression of several proteins after treatments with 4-OP. After treatments, cells were mechanically harvested and lysed in a buffer containing the following: 20 mM Tris-HCl, pH 7.5, 150 mM NaCl, 1 mM EDTA, 1 mM dithiothreitol, 0.1% sodium dodecyl sulfate, 1% Triton X-100, 1 mM orthovanadate and an inhibitor cocktail (all from Merck). The protein mixtures were resolved in a polyacrylamide denaturant gel and then electrotransferred to a polyvinylidene difluoride (PVDF) membrane (Microtech, Naples, Italy) by using the Trans-Blot Turbo Transfer System (Bio-Rad Laboratories, Milan, Italy). After a blocking step with 5% skimmed milk in Tris-buffered saline (TBS), membranes were incubated with the following primary antibodies, diluted 1:1000 in T-TBS-1% milk: mouse anti-p53 (Santa Cruz, CA, USA); mouse anti-GRP78 (Invitrogen, Milan, Italy); rabbit anti-LC3 (Invitrogen); mouse anti-caspase 3 (Invitrogen); mouse anti-p62 (Invitrogen); rabbit anti-SOD (Elabscience, Houston, TX, USA); rabbit anti-CAT (Elabscience). For normalization, a mouse anti-GAPDH (Santa Cruz) diluted 1:4000 in T-TBS-1% milk was used.

[2] = tested on: p62, LC3-II; experiment: Western blot of autophagic markers p62 and LC3-II; assay type: cell-based, human
Procedure: as §1

[3] = tested on: GRP78; experiment: Western blot of GRP78 in HepG2 cells; assay type: cell-based, human; conditions: HepG2, 24 h, higher induction at 100 μM
Procedure: as §1

[4] = tested on: HepG2 cells; experiment: Apoptosis: cleaved caspase 3 Western blot and TUNEL assay; assay type: cell-based, human; conditions: HepG2, caspase-3 8 h, TUNEL 24 h
Procedure: as §1
Microscope observation and image acquisition were performed as described above.

[5] = tested on: XBP1; experiment: XBP1 splicing detection by conventional PCR; assay type: cell-based, human; conditions: HepG2, 4 h, 100 μM
Procedure: To obtain cDNA, 1 μg of RNA was retro-transcribed employing the QuantiTect Reverse Transcription Kit (Qiagen, Milan, Italy). Finally, a conventional PCR was performed to amplify the unspliced and the spliced form for XBP1, with the following primers: 5′-[…]-3′ and 5′-[…]-3′, as previously reported. Amplified cDNA was run on a 2.5% agarose gel and stained with ethidium bromide.

[6] = tested on: HepG2 cells; experiment: LC3 immunofluorescence staining; assay type: cell-based, human; conditions: HepG2, 24 h, compared with vehicle
Procedure: Then, coverslips were incubated for 1 h with the anti-LC3 rabbit antibody (1:100, in 1% bovine albumin serum) and then with an anti-rabbit tetramethylrhodamine-conjugated antibody (1:100, in 0.1% bovine serum albumin) (Thermo Fisher Scientific). After washing, coverslips were mounted with Mowiol and observed with an Olympus CKX41 fluorescent microscope (Olympus Italia srl, Segrate, Italy) and processed with the Olympus CKX41 software (cellSens Dimension 1.5).

[7] = tested on: p53; experiment: Western blot of p53; assay type: cell-based, human; conditions: HepG2, 24 h, higher concentrations used
Procedure: as §1

[8] = tested on: CAT, SOD; experiment: Western blot of CAT and SOD; assay type: cell-based, human
Procedure: as §1

[9] = tested on: GRP78; experiment: Western blot of GRP78 in Caco-2 cells; assay type: cell-based, human; conditions: Caco-2, 24 h
Procedure: as §1

[10] = tested on: MRC5 cells; experiment: cells; assay type: cell-based; conditions: Homo sapiens; MRC5, treated for 24 h, mean (SE); read-out: calculated IC50
Procedure: (§2) To evaluate cell viability, an MTT assay was performed. […] Cell viability was directly proportional to registered absorbance and was expressed as relative viability with respect to vehicle-treated cells.

[11] = tested on: HaCat cells; experiment: cells; assay type: cell-based; conditions: Homo sapiens, treated for 24 h, mean (SE), read-out: calculated IC50
Procedure: as §2

[12] = tested on: Caco-2 cells; experiment: cells; assay type: cell-based; conditions: Homo sapiens; Caco-2, treated for 24 h, mean (SE); read-out: calculated IC50
Procedure: as §2

[13] = tested on: HepG2 cells; experiment: cells; assay type: cell-based; conditions: Homo sapiens; HepG2, treated for 24 h, mean (SE); read-out: calculated IC50
Procedure: as §2

[14] = tested on: HEK 293 cells; experiment: cells; assay type: cell-based; conditions: Homo sapiens, HEK293; HEK 293, treated for 24 h, mean (SE); read-out: calculated IC50
Procedure: as §2

[15] = tested on: type 2 transglutaminase; experiment: Type 2 transglutaminase activity in Caco-2 cells in Ca2+-free condition; assay type: cell-based, human; conditions: Caco-2, Ca2+-free condition, preliminary
Description: It has often been reported that apoptosis induced by EDCs can be caused by an unsolved ER-stress.

In the case of `CCCCCCCCc1ccc(O)cc1` [4-OP, 4-octylphenol], the GRP78 expression [1] was “markedly induced”, the p62 level ([2]; HepG2, 4 h) was “decreased” and the “LC3-II level on adding Baf A1” value ([2]; HepG2, 4 h 4-OP then further 20 h Baf A1 50 nM) was “further accumulation of LC3-II”. For the same compound, the LC3-II level ([2]; HepG2, 24 h) was “increased”, the GRP78 expression [3] was “increase in a dose-dependent manner” and the “apoptosis (cleaved caspase 3, chromatin fragmentation)” value [4] was “able to induce apoptosis”. The XBP1 spliced form [5] was “splicing was clear”, the “autophagosomes (LC3 perinuclear puncta)” value [6] was “accumulation of autophagosomes” and the p53 expression [7] was “decreased”. For the same compound, the CAT level ([8]; HepG2, 4 h) was “did not vary”, the SOD level ([8]; HepG2, 4 h, 100 μM) was “reduction” and the SOD expression level ([8]; HepG2, 18 h, 25 μM, vs vehicle-treated cells) was “lower”. The SOD expression level ([8]; HepG2, 18 h, 50 μM) was “increased”, the CAT protein level ([8]; HepG2, 18 h, 50 μM, compared to the control) was “significantly more expressed” and the GRP78 expression [9] was “less evident”.
`CCCCCCCCCc1ccc(O)cc1` [4-NP, 4-nonylphenol] was tested, and the pIC50 [10] was 4.12, the pIC50 [11] was 4.11 and the pIC50 [12] was 4.03. For the same compound, the pIC50 [13] was 4.08 and the pIC50 [14] was 4.20.
For `C[C@H](CCC(=O)O)C[C@H](C)C[C@H](C)C(=O)/C=C(\O)[C@H](C)C[C@H](C)C/C=C/[C@@H](C)[C@@H](O)[C@@H](C)[C@@H](O)C[C@@H]1CC[C@@](C)([C@H]2CC[C@@](C)([C@@H](C)O)O2)O1` [ionomycin], the “increase of transglutaminase activity” value [15] was “did not increase”.
